Where two headings read alike, the source gives them in different places. Peptide text beside a SMILES is read from it.
Key:
[1] = 40° C./75% RH, according to U.S. Pat. No. 8,222,201 (WO 2010/059733), cited from earlier work
[2] = Stability tests: solid stored in open vials at 40° C./75% RH, purity by HPLC; assay type: physicochemical; conditions: for Normalised purity: 40° C./75% RH, open vial
Description: The purity of solid samples was measured in area percentage by HPLC analysis using the method reported below:
Approximately 10 mg of material was placed in each vial (ea. 1.5 mL, open, clear glass vial).
Three vials were placed into a beaker which was then stored in a sealed desiccator containing a sodium chloride solution which keeps a constant 75% RH. The desiccator was placed into an oven at 40° C.
One vial at a time was taken out after 7 days, 14 days and 1 month and analysed.
Ovens were temperature monitored using calibrated thermometers with min and max temperatures recorded throughout the stability study.

C[C@@H]1NC(=O)[C@@H]2CCCN2C(=O)[C@H](CC(N)=O)NC(=O)[C@@H]2CSSC[C@H](N)C(=O)N[C@H]3CSSC[C@H](NC1=O)C(=O)N[C@@H]([C@@H](C)O)C(=O)NCC(=O)N[C@H](C(=O)N[C@@H](Cc1ccc(O)cc1)C(=O)O)CSSC[C@H](NC(=O)[C@H](Cc1ccc(O)cc1)NC(=O)[C@H](CCC(=O)O)NC3=O)C(=O)N2 [Form Alpha, Linaclotide] (HELM PEPTIDE1{C.C.E.Y.C.C.N.P.A.C.T.G.C.Y}$PEPTIDE1,PEPTIDE1,1:R3-6:R3|PEPTIDE1,PEPTIDE1,2:R3-10:R3|PEPTIDE1,PEPTIDE1,5:R3-13:R3$$$V2.0)
Normalised purity ([1]; Day 7): 100% | Normalised purity ([1]; Day 14): 94.8% | Normalised purity ([1]; Month 1): 91.9%

C[C@@H]1NC(=O)[C@@H]2CCCN2C(=O)[C@H](CC(N)=O)NC(=O)[C@@H]2CSSC[C@H](N)C(=O)N[C@H]3CSSC[C@H](NC1=O)C(=O)N[C@@H]([C@@H](C)O)C(=O)NCC(=O)N[C@H](C(=O)N[C@@H](Cc1ccc(O)cc1)C(=O)O)CSSC[C@H](NC(=O)[C@H](Cc1ccc(O)cc1)NC(=O)[C@H](CCC(=O)O)NC3=O)C(=O)N2 [Form II, Linaclotide] (HELM PEPTIDE1{C.C.E.Y.C.C.N.P.A.C.T.G.C.Y}$PEPTIDE1,PEPTIDE1,1:R3-6:R3|PEPTIDE1,PEPTIDE1,2:R3-10:R3|PEPTIDE1,PEPTIDE1,5:R3-13:R3$$$V2.0)
Normalised purity ([2]; Day 7): 100% | Normalised purity ([2]; Day 14): 100% | Normalised purity ([2]; Month 1): 98.9% | Susceptibility to degradation (chemical stability) compared with form alpha ([2]; open atmosphere of 75% RH and 40° C.): less susceptible to degradation than form alpha

— patent US20150361139A1, “CRYSTALLINE FORM OF LINACLOTIDE” (SANDOZ AG, priority 2013, published 2015)
